Experimental data: patent publication EP4583874B1, “MULTITARGET NUCLEAR RECEPTOR LIGANDS BASED ON 2-(4-(QUINOLIN-2-YLOXY)PHENOXY)PROPANOIC ACID AND 2-(4-(QUINOXALIN-2-YLOXY)PHENOXY)PROPANOIC ACID FOR THE TREATMENT OF METABOLIC AND LIVER DISEASES” (CHARLES UNIVERSITY, FACULTY OF PHARMACY IN HRADEC KRALOVE, priority 2022, dated 2024)

Key:
[1] = test system: 3D primary human hepatocyte spheroids; experiment: Gene expression in 3D primary human hepatocyte spheroids by RT-qPCR; type: cell-based; settings: 3D spheroids of primary human hepatocytes (JEL donor), 72 hours
Excerpt: After the interval, spheroid have been subjected to RNA isolation and RT-qPCR was used to analyse mRNA expression using specific TaqMan probes. Expression has been quantified using a reference gene (TBP) and delta-delta method. Data represents fold up or downregulation in mRNA expression for tested genes (column) related to the expression in vehicle-treated controls (equal to 1, white color).
Human hepatocellular carcinoma HepG2 cell line was purchased from the European Collection of Cell Cultures (ECACC, Salisbury, UK). Primary human hepatocytes (donor) have been purchased from BioIV, Royston, UK.
(§1) Expressions of NR target genes mRNAs in livers of mice or in 3D cultured (spheroids) primary human hepatocytes have been performed using TaqMan probes-based RT-qPCR after isolation of total RNA by Trizol® (ThermoFischer Scientific) reagent and reverse transcription synthesis of cDNA in Quant Studio cycler. Real-time qPCR TaqMan probes have been purchased prom ThermoFisher scientific (Cat. No. 4351372 and 433118). Delta-delta method and Gapdh or TATA-box binding protein (TBP) housekeeping genes were used for relative quantification. Data are expressed as fold up-/down-regulation compared to vehicle-treated samples/mice.

[2] = test system: C57BL/6J mice; experiment: Pilot study in mice, liver mRNA expression by RT-qPCR; type: in vivo; settings: 3x 30 mg/kg p.o. gavage, liver 24 h after last application, vs vehicle
Protocol: Compounds 35 and 37 have been applied three times after 24 h (3x 30 mg/kg) via p.o. gavage to wild-type C57BL/6J mice. After 24 h from the last application, mice were sacrificed, and live samples collected on dry ice for total RNA isolation. RT-qPCR experiments have been performed with TaqMan probes and expression has been quantified using a reference gene (beta-actin and Gapdh) and delta-delta method. Data represents fold up or downregulation in mRNA expression for tested genes related to the expression in vehicle-treated control animals. * - statistically significant (p<0.05) up- or down- regulation in animals treated with tested compounds (n=4).
In the pilot study, compounds of the invention 37 and 35 were applied by per os probe (gavage) to male mice of age 15 weeks (n=4 per group) three times (3 x 30 mg/kg b.w.) in 1%PEG300/methylcellulose solution (compounds of EXAMPLE 37or 35). Livers were sampled 24 hours after application into liquid nitrogen for total RNA insolation and for qRT-PCR analysis (Quantstudio 7 HT Fast Real-Time PCR System).
as §1

[3] = target: T1, human PPARγ (Homo sapiens, UniProt P37231); experiment: PPARγ luciferase reporter gene assay (pGAL4-PPARγ / pGL5-UAS 9x) in HepG2 cells; type: cell-based; settings: HepG2, 24 h
T1 construct: DNA constructs encoding human LBD domains of human PPARα, PPARγ, of LXRα (pGAL4-PPARα, pGAL4-PPARγ, pGAL4-LXRα); expressed in transfected cells; host or cells: HepG2
T1 sequence (P37231 238-503 limits assumed): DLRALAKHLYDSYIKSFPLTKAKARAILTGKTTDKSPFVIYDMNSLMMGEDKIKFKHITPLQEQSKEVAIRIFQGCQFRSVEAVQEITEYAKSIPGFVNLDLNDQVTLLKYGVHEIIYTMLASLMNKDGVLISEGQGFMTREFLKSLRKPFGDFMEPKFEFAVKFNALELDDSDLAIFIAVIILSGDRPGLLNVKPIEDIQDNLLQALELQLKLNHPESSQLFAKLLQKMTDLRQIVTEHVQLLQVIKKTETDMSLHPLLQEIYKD

[4] = target: T2, human LXRα (Homo sapiens, UniProt Q13133); experiment: LXRα luciferase reporter gene assay, inhibition of activation by GW3965 (pGAL4-LXRα / pGL5-UAS 9x) in HepG2 cells; type: cell-based; settings: HepG2, 24 h; read-out: LXRα antagonism
T2 construct: DNA constructs encoding human LBD domains of human PPARα, PPARγ, of LXRα (pGAL4-PPARα, pGAL4-PPARγ, pGAL4-LXRα); expressed in transfected cells; host or cells: HepG2
T2 sequence (Q13133 209-447 limits assumed): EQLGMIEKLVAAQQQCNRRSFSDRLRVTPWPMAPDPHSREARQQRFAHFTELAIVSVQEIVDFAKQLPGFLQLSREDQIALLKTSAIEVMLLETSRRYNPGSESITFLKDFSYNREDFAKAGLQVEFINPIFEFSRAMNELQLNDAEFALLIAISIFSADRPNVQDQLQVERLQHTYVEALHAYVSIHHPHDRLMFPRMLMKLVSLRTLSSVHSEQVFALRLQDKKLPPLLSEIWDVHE
Protocol: Bezafibrate, GW7647 and WY14643 are known PPARα ligands. […] GW3965 is known high-affinity LXRα ligand.
Inverse agonistic/antagonistic activities of tested compounds to LXRα receptor activated by the LXRα agonist GW3965(10 µM). […] Negative value indicates inverse agonism.
(§2) In HepG2 cells, luciferase gene reporter assays have been performed with the transiently transfected reporter gene luciferase construct with the UAS yeast binding site interacting with GAL4 protein (pGL5-UAS 9x, Promega). DNA constructs encoding human LBD domains of human PPARα, PPARγ, of LXRα (pGAL4-PPARα, pGAL4-PPARγ, pGAL4-LXRα) have been cotransfected with the reporter construct. For FXR, FXRE-luc construct with FXR response elements upstream of Firefly luciferase has been used together with an expression construct for human FXR for HepG2 cells transfection. HepG2 cells were then treated with compounds of the invention for 24 h.

[5] = target: T3, human FXR (Homo sapiens, UniProt Q96RI1); experiment: FXR responsive luciferase reporter gene assay (FXRE-luc + human FXR expression construct) in HepG2 cells; type: cell-based; settings: HepG2, 24 h
T3 construct: expressed in transfected cells; host or cells: HepG2
T3 sequence (Q96RI1 1-486): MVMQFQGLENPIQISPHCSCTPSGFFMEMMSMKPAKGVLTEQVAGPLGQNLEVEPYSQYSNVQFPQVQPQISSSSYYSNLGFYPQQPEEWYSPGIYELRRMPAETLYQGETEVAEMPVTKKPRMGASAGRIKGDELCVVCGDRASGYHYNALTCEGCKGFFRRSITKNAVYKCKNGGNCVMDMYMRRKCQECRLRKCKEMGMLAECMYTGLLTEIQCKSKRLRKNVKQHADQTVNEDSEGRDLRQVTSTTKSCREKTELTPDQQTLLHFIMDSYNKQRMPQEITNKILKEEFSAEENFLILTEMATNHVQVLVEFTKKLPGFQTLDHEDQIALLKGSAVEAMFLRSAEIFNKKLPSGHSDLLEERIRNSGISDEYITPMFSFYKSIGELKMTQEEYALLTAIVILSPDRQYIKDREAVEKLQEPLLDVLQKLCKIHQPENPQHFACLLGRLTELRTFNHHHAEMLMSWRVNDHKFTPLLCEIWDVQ
Excerpt: as §2

[6] = target: T4, human PPARα (Homo sapiens, UniProt Q07869); experiment: PPARα responsive luciferase reporter gene assay (pGAL4-PPARα / pGL5-UAS 9x) in HepG2 cells; type: cell-based; settings: relative activation to fenofibrate 10 µM (100%), HepG2, 24 h, negative value indicates inverse agonism
T4 construct: DNA constructs encoding human LBD domains of human PPARα, PPARγ, of LXRα (pGAL4-PPARα, pGAL4-PPARγ, pGAL4-LXRα); expressed in transfected cells; host or cells: HepG2
T4 sequence (Q07869 239-466 limits assumed): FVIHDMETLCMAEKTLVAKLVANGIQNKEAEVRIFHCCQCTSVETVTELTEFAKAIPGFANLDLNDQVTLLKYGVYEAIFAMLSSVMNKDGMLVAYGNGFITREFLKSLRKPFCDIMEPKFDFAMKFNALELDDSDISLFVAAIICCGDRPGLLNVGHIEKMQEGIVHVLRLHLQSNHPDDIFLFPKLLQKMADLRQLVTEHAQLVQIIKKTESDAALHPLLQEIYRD
Excerpt: Bezafibrate, GW7647 and WY14643 are known PPARα ligands. […] GW3965 is known high-affinity LXRα ligand. […]
as §2

[7] = target: T5, TGR5 (Homo sapiens, UniProt Q8TDU6); experiment: TGR5 luciferase reporter assay; type: cell-based; settings: relative activation to LCA 10 µM (100%), negative value indicates inverse agonism
T5 sequence (Q8TDU6 1-330): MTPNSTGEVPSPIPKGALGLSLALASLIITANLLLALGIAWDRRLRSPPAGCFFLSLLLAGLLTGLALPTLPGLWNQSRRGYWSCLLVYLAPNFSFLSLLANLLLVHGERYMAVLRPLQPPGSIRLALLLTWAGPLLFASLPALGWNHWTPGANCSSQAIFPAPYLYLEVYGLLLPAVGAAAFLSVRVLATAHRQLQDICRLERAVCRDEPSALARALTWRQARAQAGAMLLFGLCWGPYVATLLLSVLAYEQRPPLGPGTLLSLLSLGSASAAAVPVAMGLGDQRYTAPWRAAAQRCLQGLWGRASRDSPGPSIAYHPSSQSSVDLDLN

Row | Cyp7a1 expression in the mouse liver [2] | Emax at 10 µM [3] [%] | inhibition at 10 µM [4] [%] | Emax at 10 µM [5] [%] | Emax at 10 µM [6] [%] | Emax at 10 µM [7] [%] | SMILES | effect on some critical genes involved in fatty acid oxidation in comparison with fenofibrate [1] | genes involved in fatty acid catabolism ([1]; combined effect of obeticholic acid and TFCA) | Fasn gene expression in the mouse liver [2] | Pck1 gene expression in the mouse liver [2] | cholesterol efflux transporters Abcg5/8 expression in the mouse liver [2] | key protein involved in fatty acid (beta) oxidation, mRNA expression in the mouse liver [2]
1 | down-regulates | 4 | 63 | 4 | 117 | 5 | C[C@@H](Oc1ccc(Oc2ccc3ccc(Cl)cc3n2)cc1)C(=O)O [compound 35, (R)-2-(4-((7-Chloroquinolin-2-yl)oxy)phenoxy)propanoic acid] | augmented effect | suitable upregulation | down-regulate | down-regulate | down-regulates | up-regulate
2 |  | 1 | 48 | 89 | 0 | 16 | C[C@@H](Oc1ccc(Oc2ccc3c(Br)cccc3n2)cc1)C(=O)O [compound 40, (R)-2-(4-((5-Bromoquinolin-2-yl)oxy)phenoxy)propanoic acid] |  |  |  |  |  | 
